Experimental data published in patent publication US7939272B2, “Biological markers predictive of anti-cancer response to insulin-like growth factor-1 receptor kinase inhibitors” (OSI Pharmaceuticals, Inc., priority 2007, dated 2011).
pIC50: −log10 of the molar value. Like-named read-outs stand apart in the source and are kept apart here.

What was measured:
IGF-1R kinase = IGF-1R kinase (Homo sapiens, UniProt P08069); assay: IGF-1R kinase inhibition; type: biochemical; settings: IGF-1R kinase inhibitor potency, approx.
IGF-1R kinase, sequence (P08069 31-1367): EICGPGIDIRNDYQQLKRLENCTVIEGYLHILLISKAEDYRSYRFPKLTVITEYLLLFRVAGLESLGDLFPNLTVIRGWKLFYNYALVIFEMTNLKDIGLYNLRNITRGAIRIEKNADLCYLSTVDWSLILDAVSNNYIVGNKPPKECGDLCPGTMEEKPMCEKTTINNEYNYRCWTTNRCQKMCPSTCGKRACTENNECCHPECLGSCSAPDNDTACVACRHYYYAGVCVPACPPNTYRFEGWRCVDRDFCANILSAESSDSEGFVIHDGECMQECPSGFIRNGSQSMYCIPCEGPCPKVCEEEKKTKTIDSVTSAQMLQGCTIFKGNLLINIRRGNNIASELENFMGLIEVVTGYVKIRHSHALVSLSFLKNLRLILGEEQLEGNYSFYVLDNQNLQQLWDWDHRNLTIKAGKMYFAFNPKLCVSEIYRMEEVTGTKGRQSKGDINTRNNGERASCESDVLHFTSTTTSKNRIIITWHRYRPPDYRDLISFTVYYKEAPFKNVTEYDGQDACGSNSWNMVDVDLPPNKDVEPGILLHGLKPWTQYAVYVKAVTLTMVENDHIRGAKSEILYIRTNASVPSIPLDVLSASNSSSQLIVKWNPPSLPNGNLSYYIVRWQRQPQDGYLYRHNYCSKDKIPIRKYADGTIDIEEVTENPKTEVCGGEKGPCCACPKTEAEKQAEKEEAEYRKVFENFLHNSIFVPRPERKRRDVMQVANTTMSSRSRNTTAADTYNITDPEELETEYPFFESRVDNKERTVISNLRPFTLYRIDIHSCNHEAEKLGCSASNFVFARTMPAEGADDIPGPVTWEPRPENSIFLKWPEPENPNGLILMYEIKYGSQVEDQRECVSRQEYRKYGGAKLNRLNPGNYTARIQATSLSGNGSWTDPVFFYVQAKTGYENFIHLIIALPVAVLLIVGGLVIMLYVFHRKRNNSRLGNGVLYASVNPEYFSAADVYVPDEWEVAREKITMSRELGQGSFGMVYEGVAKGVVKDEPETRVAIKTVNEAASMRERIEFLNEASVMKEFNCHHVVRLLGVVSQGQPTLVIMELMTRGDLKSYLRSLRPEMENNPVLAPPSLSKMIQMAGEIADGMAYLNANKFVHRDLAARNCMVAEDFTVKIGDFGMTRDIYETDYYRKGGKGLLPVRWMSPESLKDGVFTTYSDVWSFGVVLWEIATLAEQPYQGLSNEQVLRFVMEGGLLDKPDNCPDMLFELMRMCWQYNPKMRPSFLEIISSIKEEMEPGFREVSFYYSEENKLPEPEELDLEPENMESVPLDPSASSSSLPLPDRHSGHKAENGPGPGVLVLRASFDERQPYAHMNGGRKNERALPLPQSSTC

H460 cells = assay: Cell-Titer Glo cell growth inhibition; type: cell-based, human
Description: (§1) The NSCLC lines with IGF-1R, H292, H358, H322, H441, A549, Calu6, H460, H1703 and SW1573 were cultured in the appropriate ATCC recommended supplemented media. Cell extracts were prepared by detergent lysis ((50 mM Tris-HCl, pH8, 150 mM NaCl, 1% NP-40, 0.5% NaDeoxycholate, 0.1% SDS) containing protease and phosphatase inhibitors. The soluble protein concentration was determined by micro-BSA assay (Pierce, Rockford Ill.).
IGF-1R inhibitor Compound 66 (i.e. 3-(3-Azetidin-1-ylmethyl-cyclobutyl)-1-(2-phenyl-quinolin-7-yl)-imidazo[1,5-a]pyrazin-8-ylamine; see structure below) stock concentration was 10 mM in 100% DMSO (dimethyl sulfoxide). Serial dilutions (1:3 or 1:4) were used to establish the 50% inhibitory dose of IGF-1R inhibitor. Before dosing, inhibitor was diluted in 100% DMSO, and then added to the cells at desired final concentrations in duplicates. The final DMSO concentration was between 0.3-0.5%. […]
(§2) For measuring cell viability, Cell-Titer Glo assay was used, which is available as a kit from Promega. The basis of the assay is a luminescent quantitation of ATP present in a cell culture plate well. […] The assay utilizes a substrate that binds ATP to produce a luminescent signal, which can be read on a luminometer. […] Results were calculated as a fraction of the DMSO controlled cells.

A549 cells = assay: Cell-Titer Glo cell growth inhibition; type: cell-based, human; settings: NSCLC cell line A549
Description: as §1
(§3) IGF-1R inhibitor Compound 66 (i.e. 3-(3-Azetidin-1-ylmethyl-cyclobutyl)-1-(2-phenyl-quinolin-7-yl)-imidazo[1,5-a]pyrazin-8-ylamine; see structure below) stock concentration was 10 mM in 100% DMSO (dimethyl sulfoxide). Serial dilutions (1:3 or 1:4) were used to establish the 50% inhibitory dose of IGF-1R inhibitor. Before dosing, inhibitor was diluted in 100% DMSO, and then added to the cells at desired final concentrations in duplicates. The final DMSO concentration was between 0.3-0.5%. Compound 66 was synthesized by the methods described in published International patent application number WO 2005/097800 A1.
(§4) For measuring cell viability, Cell-Titer Glo assay was used, which is available as a kit from Promega. The basis of the assay is a luminescent quantitation of ATP present in a cell culture plate well. In essence, the greater the number of viable cells in the well, the greater the level of ATP present. The assay utilizes a substrate that binds ATP to produce a luminescent signal, which can be read on a luminometer. Unless otherwise noted, the manufacturer's instructions were followed exactly. Briefly, on Day 1, cells were plated in 120 μl of 10% serum-containing growth media at a density of 4000 cells/well in a white polystyrene 96 well assay plate. On day 2, cells were treated with 15 μl of 10× concentration of the IGF-1R inhibitor (e.g. Compound 66, PQIP) or DMSO alone for a final well volume of 150 μl. After 72 h incubation with the inhibitor, the cells were assayed. Results were calculated as a fraction of the DMSO controlled cells.

H441 cells = assay: Cell-Titer Glo cell growth inhibition; type: cell-based, human; settings: NSCLC cell line H441
Description: as §1, §3, §4

H292 cells = assay: Cell-Titer Glo cell growth inhibition; type: cell-based, human; settings: NSCLC cell line H292
Description: as §1, §3, §4

SW1573 cells = assay: Cell-Titer Glo cell growth inhibition; type: cell-based, human
Description: as §1, §3, §4

H358 cells = assay: Cell-Titer Glo cell growth inhibition; type: cell-based, human; settings: NSCLC cell line H358
Description: as §1, §3, §4

[1] = test system: panel comprised of 28 tumor cell lines; assay: Cell-Titer Glo cell growth inhibition, tumor cell line panel; type: cell-based, human; settings: for inhibition at 3 µM: Homo sapiens, 3 μM PQIP, 28 tumor cell lines
Description: as §1
(§5) The cell lines HCT-116, HT-29, GEO, Colo205, SW480, SW620, BxPC3, HPAC, CFPAC-1, MiaPaca-2, Panc1, A1165, MDA-MB-231, MDA-MB-435, DU4475, and MDA-MB468 were routinely cultured in media as prescribed by the ATCC containing 10% FCS. With the exception of GEO tumor cells (obtained from Roswell Park Cancer Institute (RPCI)), and A1165 (obtained from FCRF (NCI-Frederick Cancer Research Facility)) all tumor cells were obtained from the ATCC.
IGF-1R inhibitor Compound PQIP: Synthesis of PQIP: cis-3-[3-(4-Methyl-piperazin-1-yl)-cyclobutyl]1-(2-phenyl-quinolin-7-yl)-imidazo[1,5-a]pyrazin-8-ylamine (PQIP; see structure below), is a 1,3-disubstituted-8-amino-imidazopyrazine derivative synthesized by the methods described in patent application number WO 2005/097800 A1. Compound identity and purity (>99%) was verified by ^1H and ^13C nuclear magnetic resonance, mass spectrometry (MS), and high-performance liquid chromatography using Bruker Advance 400, WatersMicromass ZQ, and Waters LC Module I Plus instruments, respectively, as well as by elemental analysis. PQIP was dissolved in DMSO at 10 mmol/L for use in biochemical or cellular assays done in vitro. […]
as §2

RKO cells = assay: Cell-Titer Glo cell growth inhibition; type: cell-based, human
Description: as §4, with “IGF-1R inhibitor Compound PQIP: […] PQIP was dissolved in DMSO at 10 mmol/L for use in biochemical or cellular assays done in vitro. For in vivo studies, PQIP was dissolved in 25 mmol/L tartaric acid at an appropriate concentration to deliver the desired dose at 20 mL/kg by oral gavage. For” for “For”

DLD-1 cells = assay: Cell-Titer Glo cell growth inhibition; type: cell-based, human
Description: as §4, with “IGF-1R inhibitor Compound PQIP: […] PQIP was dissolved in DMSO at 10 mmol/L for use in biochemical or cellular assays done in vitro. For in vivo studies, PQIP was dissolved in 25 mmol/L tartaric acid at an appropriate concentration to deliver the desired dose at 20 mL/kg by oral gavage. For” for “For”

HCT-116 cells = assay: Cell-Titer Glo cell growth inhibition; type: cell-based; settings: Homo sapiens, 3 μM PQIP, activating mutation in PI3K
Source text: as §5
IGF-1R inhibitor Compound PQIP: Synthesis of PQIP: cis-3-[3-(4-Methyl-piperazin-1-yl)-cyclobutyl]1-(2-phenyl-quinolin-7-yl)-imidazo[1,5-a]pyrazin-8-ylamine (PQIP; see structure below), is a 1,3-disubstituted-8-amino-imidazopyrazine derivative synthesized by the methods described in patent application number WO 2005/097800 A1. […]
as §2

BxPC3 cells = assay: Cell-Titer Glo cell growth inhibition; type: cell-based, human; settings: BxPC3, growth inhibition by an IGF-1R kinase inhibitor
Source text: as §5
(§6) IGF-1R inhibitor Compound PQIP: Synthesis of PQIP: cis-3-[3-(4-Methyl-piperazin-1-yl)-cyclobutyl]1-(2-phenyl-quinolin-7-yl)-imidazo[1,5-a]pyrazin-8-ylamine (PQIP; see structure below), is a 1,3-disubstituted-8-amino-imidazopyrazine derivative synthesized by the methods described in patent application number WO 2005/097800 A1. Compound identity and purity (>99%) was verified by ^1H and ^13C nuclear magnetic resonance, mass spectrometry (MS), and high-performance liquid chromatography using Bruker Advance 400, WatersMicromass ZQ, and Waters LC Module I Plus instruments, respectively, as well as by elemental analysis. PQIP was dissolved in DMSO at 10 mmol/L for use in biochemical or cellular assays done in vitro. For in vivo studies, PQIP was dissolved in 25 mmol/L tartaric acid at an appropriate concentration to deliver the desired dose at 20 mL/kg by oral gavage.
as §4

Colo205 cells = assay: Cell-Titer Glo cell growth inhibition; type: cell-based, human; settings: Colo205, growth inhibition by an IGF-1R kinase inhibitor
Source text: as §5, §6, §4

CFPAC cells = assay: Cell-Titer Glo cell growth inhibition; type: cell-based, human; settings: growth inhibition by an IGF-1R kinase inhibitor
Source text: as §5, §6, §4

GEO cells = assay: Cell-Titer Glo cell growth inhibition; type: cell-based, human; settings: growth inhibition by an IGF-1R kinase inhibitor
Source text: as §5, §6, §4

Panc1 cells = assay: Cell-Titer Glo cell growth inhibition; type: cell-based, human; settings: Panc1, growth inhibition by an IGF-1R kinase inhibitor
Source text: as §5, §6, §4

HT-29 cells = assay: Cell-Titer Glo cell growth inhibition; type: cell-based, human; settings: HT-29, growth inhibition by an IGF-1R kinase inhibitor
Source text: as §5, §6, §4

MiaPaca-2 cells = assay: Cell-Titer Glo cell growth inhibition; type: cell-based, human; settings: MiaPaca-2, growth inhibition by an IGF-1R kinase inhibitor
Source text: as §5, §6, §4

HPAC cells = assay: Cell-Titer Glo cell growth inhibition; type: cell-based, human; settings: growth inhibition by an IGF-1R kinase inhibitor
Source text: as §5, §6, §4

MCF-7 cells = assay: Cell-Titer Glo cell growth inhibition; type: cell-based; settings: Homo sapiens, MCF7, 3 μM PQIP, activating mutation in PI3K
Description: as §4, with “The” for “For measuring cell viability, Cell-Titer Glo assay was used, which is available as a kit from Promega. The”, “On day 2, cells were treated with 15 μl of 10× concentration of the IGF-1R inhibitor (e.g. Compound 66, PQIP) or DMSO alone for a final well volume of 150 μl.” left out

Nc1nccn2c1c(-c1ccc3ccc(-c4ccccc4)nc3c1)nc2[C@H]1C[C@@H](CN2CCC2)C1 [Compound 66, 3-(3-Azetidin-1-ylmethyl-cyclobutyl)-1-(2-phenyl-quinolin-7-yl)-imidazo[1,5-a]pyrazin-8-ylamine]
pIC50 (IGF-1R kinase): ~7.30 | sensitivity to Compound 66-mediated growth inhibition (H460 cells; NSCLC cell line H460): relatively insensitive | sensitivity to Compound 66-mediated growth inhibition (A549 cells): intermediate sensitivity | sensitivity to Compound 66-mediated growth inhibition (H441 cells): sensitive | sensitivity to Compound 66-mediated growth inhibition (H292 cells): sensitive | inhibition at 10 µM (SW1573 cells; Homo sapiens, SW1573 cells, 10 μM inhibitor, read-out: growth inhibition in vitro): < 10% | sensitivity to Compound 66-mediated growth inhibition (SW1573 cells; NSCLC cell line SW1573): relatively insensitive | sensitivity to Compound 66-mediated growth inhibition (H358 cells): sensitive

CN1CCN([C@H]2C[C@@H](c3nc(-c4ccc5ccc(-c6ccccc6)nc5c4)c4c(N)nccn43)C2)CC1 [PQIP, cis-3-[3-(4-Methyl-piperazin-1-yl)-cyclobutyl]1-(2-phenyl-quinolin-7-yl)-imidazo[1,5-a]pyrazin-8-ylamine]
inhibition at 3 µM ([1]; read-out: median growth inhibition for the panel): 37% | inhibition at 3 µM ([1]; 72 hours after dosing, read-out: % maximal growth inhibition, range of sensitivities over the panel): 2 to 72% | effects of varying concentrations on cell proliferation ([1]; all cell lines, data not shown): dose-dependent | inhibition at 3 µM (H460 cells; Homo sapiens, NCI-H460 cells, 3 μM PQIP, activating mutation in PI3K): < 20% | inhibition at 3 µM (RKO cells; Homo sapiens, RKO cells, 3 μM PQIP, activating mutation in PI3K): < 20% | sensitivity to IGF-1R inhibition (RKO cells; RKO, growth inhibition by an IGF-1R kinase inhibitor): relatively insensitive | sensitivity to IGF-1R inhibition (DLD-1 cells; DLD1, growth inhibition by an IGF-1R kinase inhibitor): relatively sensitive | inhibition at 3 µM (DLD-1 cells; Homo sapiens, DLD-1 cells, 3 μM PQIP, activating mutation in PI3K): < 20% | inhibition at 3 µM (HCT-116 cells): > 70% | sensitivity to IGF-1R inhibition (BxPC3 cells): relatively sensitive | sensitivity to IGF-1R inhibition (Colo205 cells): relatively sensitive | sensitivity to IGF-1R inhibition (CFPAC cells): relatively sensitive | sensitivity to IGF-1R inhibition (GEO cells): relatively sensitive | sensitivity to IGF-1R inhibition (Panc1 cells): relatively insensitive | sensitivity to IGF-1R inhibition (HT-29 cells): relatively sensitive | sensitivity to IGF-1R inhibition (MiaPaca-2 cells): relatively insensitive | sensitivity to IGF-1R inhibition (HPAC cells): relatively sensitive | inhibition at 3 µM (MCF-7 cells): > 70%
